# Laboratory results from ChEMBL document CHEMBL1130203, “Novel fluoroquinolone antibacterial agents containing oxime-substituted (aminomethyl)pyrrolidines: synthesis and antibacterial activity of 7-(4-(aminomethyl)-3-(methoxyimino)pyrrolidin-1-yl)-1-cyclopropyl-6- fluoro-4-oxo-1,4-dihydro[1,8]naphthyridine-3-carboxylic acid (LB20304)” (J Med Chem, 1997).
# Test system: Acinetobacter calcoaceticus
# Test: Minimum inhibitory concentration (MIC) against Acinetobacter calcoaceticus 15473
# Format: functional
# Details: Acinetobacter calcoaceticus; read-out: MIC
row,SMILES,MIC
1,NCC1CN(c2nc3c(cc2F)c(=O)c(C(=O)O)cn3C2CC2)C/C1=N\O (stereo unspecified),0.13 µg/mL
2,CCCO/N=C1\CN(c2nc3c(cc2F)c(=O)c(C(=O)O)cn3C2CC2)CC1CN (stereo unspecified),0.031 µg/mL
3,NCC1CN(c2nc3c(cc2F)c(=O)c(C(=O)O)cn3C2CC2)C/C1=N\Oc1ccccc1 (stereo unspecified),0.016 µg/mL
4,NCC1CN(c2nc3c(cc2F)c(=O)c(C(=O)O)cn3C2CC2)C/C1=N\OCc1ccccc1 (stereo unspecified),< 0.008 µg/mL

# Test system: Bacillus subtilis
# Test: Minimum inhibitory concentration (MIC) against Bacillus subtilis ATCC 6633
# Format: functional
# Details: not given
row,SMILES,MIC
1,NCC1CN(c2nc3c(cc2F)c(=O)c(C(=O)O)cn3C2CC2)C/C1=N\O (stereo unspecified),0.016 µg/mL
2,CCCO/N=C1\CN(c2nc3c(cc2F)c(=O)c(C(=O)O)cn3C2CC2)CC1CN (stereo unspecified),< 0.008 µg/mL
3,NCC1CN(c2nc3c(cc2F)c(=O)c(C(=O)O)cn3C2CC2)C/C1=N\Oc1ccccc1 (stereo unspecified),< 0.008 µg/mL
4,NCC1CN(c2nc3c(cc2F)c(=O)c(C(=O)O)cn3C2CC2)C/C1=N\OCc1ccccc1 (stereo unspecified),< 0.008 µg/mL

# Test system: Escherichia coli
# Test: Minimum inhibitory concentration (MIC) against Escherichia coli 10536
# Format: functional
# Details: not given
row,SMILES,MIC
1,NCC1CN(c2nc3c(cc2F)c(=O)c(C(=O)O)cn3C2CC2)C/C1=N\O (stereo unspecified),0.031 µg/mL
2,CCCO/N=C1\CN(c2nc3c(cc2F)c(=O)c(C(=O)O)cn3C2CC2)CC1CN (stereo unspecified),< 0.008 µg/mL
3,NCC1CN(c2nc3c(cc2F)c(=O)c(C(=O)O)cn3C2CC2)C/C1=N\Oc1ccccc1 (stereo unspecified),0.031 µg/mL
4,NCC1CN(c2nc3c(cc2F)c(=O)c(C(=O)O)cn3C2CC2)C/C1=N\OCc1ccccc1 (stereo unspecified),< 0.008 µg/mL

# Test system: Escherichia coli
# Test: Minimum inhibitory concentration (MIC) against Escherichia coli 3190Y
# Format: functional
# Details: not given
row,SMILES,MIC
1,NCC1CN(c2nc3c(cc2F)c(=O)c(C(=O)O)cn3C2CC2)C/C1=N\O (stereo unspecified),0.016 µg/mL
2,CCCO/N=C1\CN(c2nc3c(cc2F)c(=O)c(C(=O)O)cn3C2CC2)CC1CN (stereo unspecified),< 0.008 µg/mL
3,NCC1CN(c2nc3c(cc2F)c(=O)c(C(=O)O)cn3C2CC2)C/C1=N\Oc1ccccc1 (stereo unspecified),0.016 µg/mL
4,NCC1CN(c2nc3c(cc2F)c(=O)c(C(=O)O)cn3C2CC2)C/C1=N\OCc1ccccc1 (stereo unspecified),< 0.008 µg/mL

# Test system: Escherichia coli
# Test: Minimum inhibitory concentration (MIC) against Escherichia coli TEM9 2639E
# Format: functional
# Details: Escherichia coli; read-out: MIC
row,SMILES,MIC
1,NCC1CN(c2nc3c(cc2F)c(=O)c(C(=O)O)cn3C2CC2)C/C1=N\O (stereo unspecified),0.13 µg/mL
2,CCCO/N=C1\CN(c2nc3c(cc2F)c(=O)c(C(=O)O)cn3C2CC2)CC1CN (stereo unspecified),0.063 µg/mL
3,NCC1CN(c2nc3c(cc2F)c(=O)c(C(=O)O)cn3C2CC2)C/C1=N\Oc1ccccc1 (stereo unspecified),0.13 µg/mL
4,NCC1CN(c2nc3c(cc2F)c(=O)c(C(=O)O)cn3C2CC2)C/C1=N\OCc1ccccc1 (stereo unspecified),0.063 µg/mL

# Test system: Klebsiella aerogenes
# Test: Minimum inhibitory concentration (MIC) against Klebsiella aerogenes 1082E
# Format: functional
# Details: Klebsiella aerogenes; read-out: MIC
row,SMILES,MIC
1,NCC1CN(c2nc3c(cc2F)c(=O)c(C(=O)O)cn3C2CC2)C/C1=N\O (stereo unspecified),0.13 µg/mL
2,CCCO/N=C1\CN(c2nc3c(cc2F)c(=O)c(C(=O)O)cn3C2CC2)CC1CN (stereo unspecified),0.13 µg/mL
3,NCC1CN(c2nc3c(cc2F)c(=O)c(C(=O)O)cn3C2CC2)C/C1=N\Oc1ccccc1 (stereo unspecified),0.13 µg/mL
4,NCC1CN(c2nc3c(cc2F)c(=O)c(C(=O)O)cn3C2CC2)C/C1=N\OCc1ccccc1 (stereo unspecified),0.063 µg/mL

# Test system: Pseudomonas aeruginosa
# Test: Minimum inhibitory concentration (MIC) against Pseudomonas aeruginosa 1912E
# Format: functional
# Details: Pseudomonas aeruginosa; read-out: MIC
row,SMILES,MIC
1,NCC1CN(c2nc3c(cc2F)c(=O)c(C(=O)O)cn3C2CC2)C/C1=N\O (stereo unspecified),2 µg/mL
2,CCCO/N=C1\CN(c2nc3c(cc2F)c(=O)c(C(=O)O)cn3C2CC2)CC1CN (stereo unspecified),1 µg/mL
3,NCC1CN(c2nc3c(cc2F)c(=O)c(C(=O)O)cn3C2CC2)C/C1=N\Oc1ccccc1 (stereo unspecified),2 µg/mL
4,NCC1CN(c2nc3c(cc2F)c(=O)c(C(=O)O)cn3C2CC2)C/C1=N\OCc1ccccc1 (stereo unspecified),1 µg/mL

# Test system: Staphylococcus aureus
# Test: Minimum inhibitory concentration (MIC) against Staphylococcus aureus 241
# Format: functional
# Details: Staphylococcus aureus; read-out: MIC
row,SMILES,MIC
1,NCC1CN(c2nc3c(cc2F)c(=O)c(C(=O)O)cn3C2CC2)C/C1=N\O (stereo unspecified),8 µg/mL
2,CCCO/N=C1\CN(c2nc3c(cc2F)c(=O)c(C(=O)O)cn3C2CC2)CC1CN (stereo unspecified),2 µg/mL
3,NCC1CN(c2nc3c(cc2F)c(=O)c(C(=O)O)cn3C2CC2)C/C1=N\Oc1ccccc1 (stereo unspecified),< 0.008 µg/mL
4,NCC1CN(c2nc3c(cc2F)c(=O)c(C(=O)O)cn3C2CC2)C/C1=N\OCc1ccccc1 (stereo unspecified),2 µg/mL

# Test system: Staphylococcus aureus
# Test: Minimum inhibitory concentration (MIC) against Staphylococcus aureus 6538p.
# Format: functional
# Details: not given
row,SMILES,MIC
1,NCC1CN(c2nc3c(cc2F)c(=O)c(C(=O)O)cn3C2CC2)C/C1=N\O (stereo unspecified),0.031 µg/mL
2,CCCO/N=C1\CN(c2nc3c(cc2F)c(=O)c(C(=O)O)cn3C2CC2)CC1CN (stereo unspecified),0.008 µg/mL
3,NCC1CN(c2nc3c(cc2F)c(=O)c(C(=O)O)cn3C2CC2)C/C1=N\Oc1ccccc1 (stereo unspecified),0.016 µg/mL
4,NCC1CN(c2nc3c(cc2F)c(=O)c(C(=O)O)cn3C2CC2)C/C1=N\OCc1ccccc1 (stereo unspecified),< 0.008 µg/mL

# Test system: Staphylococcus epidermidis
# Test: Minimum inhibitory concentration (MIC) against Staphylococcus epidermidis 887E
# Format: functional
# Details: not given
row,SMILES,MIC
1,NCC1CN(c2nc3c(cc2F)c(=O)c(C(=O)O)cn3C2CC2)C/C1=N\O (stereo unspecified),0.031 µg/mL
2,CCCO/N=C1\CN(c2nc3c(cc2F)c(=O)c(C(=O)O)cn3C2CC2)CC1CN (stereo unspecified),< 0.008 µg/mL
3,NCC1CN(c2nc3c(cc2F)c(=O)c(C(=O)O)cn3C2CC2)C/C1=N\Oc1ccccc1 (stereo unspecified),< 0.008 µg/mL
4,NCC1CN(c2nc3c(cc2F)c(=O)c(C(=O)O)cn3C2CC2)C/C1=N\OCc1ccccc1 (stereo unspecified),< 0.008 µg/mL

# Test system: Staphylococcus epidermidis
# Test: Minimum inhibitory concentration (MIC) against Staphylococcus epidermidis 178
# Format: functional
# Details: Staphylococcus epidermidis; read-out: MIC
row,SMILES,MIC
1,NCC1CN(c2nc3c(cc2F)c(=O)c(C(=O)O)cn3C2CC2)C/C1=N\O (stereo unspecified),8 µg/mL
2,CCCO/N=C1\CN(c2nc3c(cc2F)c(=O)c(C(=O)O)cn3C2CC2)CC1CN (stereo unspecified),1 µg/mL
3,NCC1CN(c2nc3c(cc2F)c(=O)c(C(=O)O)cn3C2CC2)C/C1=N\Oc1ccccc1 (stereo unspecified),16 µg/mL
4,NCC1CN(c2nc3c(cc2F)c(=O)c(C(=O)O)cn3C2CC2)C/C1=N\OCc1ccccc1 (stereo unspecified),2 µg/mL

# Test system: Staphylococcus aureus
# Test: Minimum inhibitory concentration (MIC) against Staphylococcus aureus giorgio
# Format: functional
# Details: not given
row,SMILES,MIC
1,NCC1CN(c2nc3c(cc2F)c(=O)c(C(=O)O)cn3C2CC2)C/C1=N\O (stereo unspecified),0.031 µg/mL
2,CCCO/N=C1\CN(c2nc3c(cc2F)c(=O)c(C(=O)O)cn3C2CC2)CC1CN (stereo unspecified),< 0.008 µg/mL
3,NCC1CN(c2nc3c(cc2F)c(=O)c(C(=O)O)cn3C2CC2)C/C1=N\Oc1ccccc1 (stereo unspecified),0.016 µg/mL
4,NCC1CN(c2nc3c(cc2F)c(=O)c(C(=O)O)cn3C2CC2)C/C1=N\OCc1ccccc1 (stereo unspecified),< 0.008 µg/mL

# Test system: Enterococcus faecalis
# Test: Minimum inhibitory concentration (MIC) against Streptococcus faecalis 29212
# Format: functional
# Details: Enterococcus faecalis; read-out: MIC
row,SMILES,MIC
1,NCC1CN(c2nc3c(cc2F)c(=O)c(C(=O)O)cn3C2CC2)C/C1=N\O (stereo unspecified),0.25 µg/mL
2,CCCO/N=C1\CN(c2nc3c(cc2F)c(=O)c(C(=O)O)cn3C2CC2)CC1CN (stereo unspecified),0.063 µg/mL
3,NCC1CN(c2nc3c(cc2F)c(=O)c(C(=O)O)cn3C2CC2)C/C1=N\Oc1ccccc1 (stereo unspecified),0.13 µg/mL
4,NCC1CN(c2nc3c(cc2F)c(=O)c(C(=O)O)cn3C2CC2)C/C1=N\OCc1ccccc1 (stereo unspecified),0.031 µg/mL

# Test system: Enterobacter cloacae
# Test: Minimum inhibitory concentration (MIC) against Enterobacter cloacae P99
# Format: functional
# Details: not given
row,SMILES,MIC
1,NCC1CN(c2nc3c(cc2F)c(=O)c(C(=O)O)cn3C2CC2)C/C1=N\O (stereo unspecified),0.031 µg/mL
2,CCCO/N=C1\CN(c2nc3c(cc2F)c(=O)c(C(=O)O)cn3C2CC2)CC1CN (stereo unspecified),< 0.008 µg/mL
3,NCC1CN(c2nc3c(cc2F)c(=O)c(C(=O)O)cn3C2CC2)C/C1=N\Oc1ccccc1 (stereo unspecified),0.031 µg/mL
4,NCC1CN(c2nc3c(cc2F)c(=O)c(C(=O)O)cn3C2CC2)C/C1=N\OCc1ccccc1 (stereo unspecified),< 0.008 µg/mL
